Results reported in patent publication US20140296354A1, “SYNTHESIS OF PEPTOID-BASED SMALL MOLECULAR GELATORS FROM MULTIPLE COMPONENT REACTIONS” (OLD DOMINION UNIVERSITY RESEARCH FOUNDATION, priority 2013, published 2014).
Each block holds one compound with its values, some of them ahead of it.

Assays:
[1] = Gelation test in solvents at room temperature; format: physicochemical; set-up: key to Gelation test result: I, insoluble; P, precipitating; S, soluble at ~20 mg/mL; G, gel at room temperature; number is minimum gelation concentration; conditions: for Gelation test result: room temperature; for concentration of slightly unstable or partial gel (UG) / Gelation result / preliminary MGC (stable gel): Table 3
Experimental: (§1) Gelation tests were performed by adding incremental amounts of compounds to a solvent or solvent system at room temperature and observing the results (i.e., gel formation, solubility of compounds, insolubility of compounds, or formation of a precipitate). […] The term “precipation” means that the compound dissolves upon heating and sonicating, however, it crashes out of solution when the heat is removed.
(§2) After the compounds were synthesized, they were screened for gelation properties. […] For the compounds with new chiral centers, they formed gels in aqueous environment preferentially.

[2] = Gelation test in solvents at room temperature; format: physicochemical; set-up: key: I, insoluble; P, precipitating; S, soluble at ~20 mg/mL; G, gel at room temperature; number is minimum gelation concentration; conditions: Table 3
Experimental: as §1, §2

[3] = Gelation test in solvents at room temperature; format: physicochemical; set-up: key: S, soluble (starting test at 20 mg/mL); I, insoluble; P, precipitate; G, stable gel, the numbers after G are preliminary MGCs in mg/mL; UG, slightly unstable gels or partial gels, concentrations are 20 mg/mL unless otherwise noted; conditions: Table 3
Experimental: as §1, §2

- Gelation test result ([1]; DMSO:H2O (1:1)): P
- Gelation test result ([1]; DMSO:H2O (1:2)): P
- Gelation test result ([1]; EtOH): P
- Gelation test result ([1]; EtOH:H2O (1:1)): P
- Gelation test result ([1]; EtOH:H2O (1:2)): P
- Gelation test result ([1]; H2O): I
- Gelation test result ([1]; Hexane): I
- melting point: 104 to 106 °C
Structure (SMILES): O=C(CN(Cc1ccccc1)C(=O)c1ccccc1)NC1CCCCC1 [Compound 16, N-benzyl-N-(2-(cyclohexylamino)-2-oxoethyl)benzamide]

- Gelation result ([2]; Hexane): I
- concentration of slightly unstable or partial gel (UG) ([1]; DMSO:H2O 1:1): 20000 µg/mL
- concentration of slightly unstable or partial gel (UG) ([1]; DMSO:H2O 1:2): 20000 µg/mL
- Gelation result ([3]; DMSO:H2O 1:1): UG
- Gelation result ([3]; DMSO:H2O 1:2): UG
- Gelation result ([3]; Water): P
Structure (SMILES): O=C(O)CNC(=O)CN(Cc1ccccc1)C(=O)c1ccc(C(=O)N(CC(=O)NCC(=O)O)Cc2ccccc2)cc1 [Compound 43]
- Gelation result ([1]; EtOH): S (S, soluble (starting test at 20 mg/mL))

- Gelation result ([2]; Hexane): I
- preliminary MGC (stable gel) ([1]; DMSO:H2O 1:1): 20.0 mg/mL
- preliminary MGC (stable gel) ([1]; DMSO:H2O 1:2): 10.0 mg/mL
- preliminary MGC (stable gel) ([1]; EtOH:H2O (1:2)): 20.0 mg/mL
- preliminary MGC (stable gel) ([1]; EtOH): 10.0 mg/mL
- preliminary MGC (stable gel) ([1]; Water): 10.0 mg/mL
- Gelation result ([3]; DMSO:H2O 1:1): G
- Gelation result ([3]; DMSO:H2O 1:2): G
- Gelation result ([3]; EtOH:H2O (1:2)): G
- Gelation result ([3]; EtOH): G
- Gelation result ([3]; Water): G
Structure (SMILES): CCOC(=O)CNC(=O)CN(Cc1ccc(OC)cc1)C(=O)CCC(=O)NC1C(OC)OC2COC(c3ccccc3)OC2C1O (stereo not shown) [Compound 34]
- gelation properties (in words) ([1]; screening of Table 3 compounds): able to gelate in water as well as almost all the tested solvents

- preliminary MGC (stable gel) ([1]; DMSO:H2O 1:1): 20.0 mg/mL
- preliminary MGC (stable gel) ([1]; DMSO:H2O 1:2): 20.0 mg/mL
- Gelation result ([3]; DMSO:H2O 1:1): G
- Gelation result ([3]; DMSO:H2O 1:2): G
- Gelation result ([3]; EtOH:H2O (1:2)): P
- Gelation result ([3]; EtOH): P
Structure (SMILES): CC1(C)OCC(CN(CC(=O)NC2CCCCC2)C(=O)c2ccc(Br)cc2)O1 (stereo not shown) [Compound 27]
- Gelation result ([1]; Hexane): S (S, soluble (starting test at 20 mg/mL))
- Gelation result ([1]; Water): S (S, soluble (starting test at 20 mg/mL))

- Gelation result ([2]; DMSO:H2O 1:2): I
- preliminary MGC (stable gel) ([1]; Water): 21.0 mg/mL
- Gelation result ([3]; EtOH:H2O (1:2)): P
- Gelation result ([3]; Water): G
Structure (SMILES): COc1ccc(C(C(=O)NC2CCCCC2)N(C(C)=O)[C@H](C)c2ccccc2)cc1 (single isomer, unassigned) [Compound 38b]

- Gelation result ([2]; Hexane): I
- Gelation result ([3]; DMSO:H2O 1:1): P
- Gelation result ([3]; DMSO:H2O 1:2): P
- Gelation result ([3]; EtOH:H2O (1:2)): P
- Gelation result ([3]; Water): P
Structure (SMILES): CCOC(=O)CNC(=O)CN(CCNC(=O)OC(C)(C)C)C(=O)Cc1ccc2ccccc2c1 [Compound 33]
- Gelation result ([1]; EtOH): S (S, soluble (starting test at 20 mg/mL))

- Gelation test result ([1]; DMSO:H2O (1:1)): S (S, soluble at ~20 mg/mL)
- Gelation test result ([1]; DMSO:H2O (1:2)): P
- Gelation test result ([1]; EtOH): S (S, soluble at ~20 mg/mL)
- Gelation test result ([1]; EtOH:H2O (1:1)): S (S, soluble at ~20 mg/mL)
- Gelation test result ([1]; EtOH:H2O (1:2)): P
- Gelation test result ([1]; H2O): P
- Gelation test result ([1]; Hexane): I^(a)
- melting point: 122 to 124 °C
Structure (SMILES): CC(=O)N(CC(=O)NC1CCCCC1)Cc1ccccc1 [Compound 14, N-benzyl-N-(2-(cyclohexylamino)-2-oxoethyl)acetamide]

- Gelation result ([2]; EtOH:H2O (1:2)): I
- concentration of slightly unstable or partial gel (UG) ([1]; DMSO:H2O 1:2): 18000 µg/mL
- concentration of slightly unstable or partial gel (UG) ([1]; Water): 17000 µg/mL
- Gelation result ([3]; DMSO:H2O 1:2): UG
- Gelation result ([3]; Hexane): P
- Gelation result ([3]; Water): UG
Structure (SMILES): COc1ccc(C(C(=O)NC2CCCCC2)N(C(C)=O)[C@H](C)c2ccccc2)cc1 (single isomer, unassigned) [Compound 38a]
- Gelation result ([1]; EtOH): S (S, soluble (starting test at 20 mg/mL))

- Gelation result ([2]; Hexane): I
Structure (SMILES): O=C(CN(CC(O)CO)C(=O)c1ccc(Br)cc1)NC1CCCCC1 (stereo not shown) [Compound 41]
- Gelation result ([1]; DMSO:H2O 1:1): S (S, soluble (starting test at 20 mg/mL))
- Gelation result ([1]; DMSO:H2O 1:2): S (S, soluble (starting test at 20 mg/mL))
- Gelation result ([1]; EtOH:H2O (1:2)): S (S, soluble (starting test at 20 mg/mL))
- Gelation result ([1]; EtOH): S (S, soluble (starting test at 20 mg/mL))
- Gelation result ([1]; Water): S (S, soluble (starting test at 20 mg/mL))

- Gelation result ([2]; Water): I
- preliminary MGC (stable gel) ([1]; DMSO:H2O 1:1): 20.0 mg/mL
- preliminary MGC (stable gel) ([1]; DMSO:H2O 1:2): 20.0 mg/mL
- Gelation result ([3]; DMSO:H2O 1:1): G
- Gelation result ([3]; DMSO:H2O 1:2): G
- Gelation result ([3]; EtOH:H2O (1:2)): P
Structure (SMILES): COC1OC(CO)C(O)C(O)C1N(CC(=O)NC1CCCCC1)C(=O)c1ccc(Br)cc1 (stereo not shown) [Compound 40]
- Gelation result ([1]; EtOH): S (S, soluble (starting test at 20 mg/mL))
- Gelation result ([1]; Hexane): S (S, soluble (starting test at 20 mg/mL))

- Gelation result ([2]; Hexane): I
- preliminary MGC (stable gel) ([1]; DMSO:H2O 1:2): 20.0 mg/mL
- concentration of slightly unstable or partial gel (UG) ([1]; Water): 20000 µg/mL
- Gelation result ([3]; DMSO:H2O 1:1): P
- Gelation result ([3]; DMSO:H2O 1:2): G
- Gelation result ([3]; EtOH:H2O (1:2)): P
- Gelation result ([3]; EtOH): UG
- Gelation result ([3]; Water): UG
Structure (SMILES): O=C(CN(Cc1ccccc1)C(=O)c1ccc(C(=O)N(CC(=O)NC2CCCCC2)Cc2ccccc2)cc1)NC1CCCCC1 [Compound 29]
